# Measurements published in patent publication US5095139A (Ciba-Geigy Corporation, priority 1986, dated 1992).
# How the values were obtained:
# solubility = assay type: physicochemical
# Candida albicans = conditions: cited from earlier work
# hyphal fungi = conditions: cited from earlier work
# Saccharomyces cerevisiae = conditions: cited from earlier work
# [1] = test system: pronase from Streptomyces griseus; assay: pronase treatment
# Description: The enzymatic hydrolysis of rhizocticine B (L-Val-L-Arg-L-APPA) to rhizocticine A with removal of valine is effected with pronase from Streptomyces griseus, a peptidase of low specificity. The enzymatic degradation of L-Val-L-Arg-L-APPA is effected quantitatively within a few minutes (approximately 15 minutes), the antifungal activity being obtained. By removing the N-terminal amino acid valine, rhizocticine A is formed. The hydrolysis is confirmed by thin-layer chromatography and ion-exchanger/amino acid analysis.
# fungi = assay: antifungal activity of isolated tripeptides; assay type: cell-based; conditions: isolated by HPLC from rhizocticine B isolates
# pronase = pronase from Streptomyces griseus; conditions: up to 12 hours
# thermolysin = thermolysin (2 mg/ml) in 0.05N N-ethylmorpholinium acetate, 0.01 M CaCl2 ×6H2 O (pH 7.8); conditions: 41° C., up to 30 hours
Compound,Solubility (solubility; 35% ethanol),Solubility (solubility; apolar solvents),Solubility (solubility; ethanol and higher alcohols),Solubility (solubility; water),further results
"N[C@@H](/C=C\CP(=O)(O)O)C(=O)O (stereo in doubt) [L-APPA, L-2-amino-5-phosphono-3-cis-pentenoic acid]",readily soluble,insoluble,moderately soluble,readily soluble,
"C[C@H](N)C(=O)N[C@@H](C[C@@H]1CCC(=O)[C@@H]2O[C@H]12)C(=O)O [Bacilysin, N-alanyl-3-(2,3-epoxycyclohexanon-4-yl)-alanine]",,,,,inhibition (Candida albicans): inhibits; action (hyphal fungi): virtually no action; inhibition (Saccharomyces cerevisiae): inhibits
"N=C(N)NCCC[C@H](N)C(=O)N[C@@H](/C=C\CP(=O)(O)O)C(=O)O [rhizocticine A, L-Arg-L-APPA]",readily soluble,insoluble,moderately soluble,readily soluble,loss of activity of the dipeptide formed ([1]; after 12 hours of pronase treatment): no loss of activity; behaviour during the pronase treatment ([1]; native compound): remains inert
"CC(C)[C@H](N)C(=O)N[C@@H](CCCNC(=N)N)C(=O)N[C@@H](/C=C\CP(=O)(O)O)C(=O)O [rhizocticine B, L-Val-L-Arg-L-APPA]",readily soluble,insoluble,moderately soluble,readily soluble,time for quantitative enzymatic degradation (removal of N-terminal valine) ([1]; pronase): approximately 15 minutes
"CC[C@H](C)[C@H](N)C(=O)N[C@@H](CCCNC(=N)N)C(=O)N[C@@H](/C=C\CP(=O)(O)O)C(=O)O [rhizocticine C, L-Ile-L-Arg-L-APPA]",,,,,antifungal activity (fungi): antifungal
"CC(C)C[C@H](N)C(=O)N[C@@H](CCCNC(=N)N)C(=O)N[C@@H](/C=C\CP(=O)(O)O)C(=O)O [rhizocticine D, L-Leu-L-Arg-L-APPA]",,,,,antifungal activity (fungi): antifungal
L-Arg-L-APPA,,,,,not cleaved (pronase): remains inert during the pronase treatment; cleaved bond (thermolysin): L-Arg-L-APPA
L-Val-L-Arg-L-APPA,,,,,"cleaved bond (pronase): L-Val-L-Arg, approximately 15 minutes"
